Experimental data from patent US11077090B2, “Compounds and compositions and uses thereof” (Sunovion Pharmaceuticals Inc., priority 2016, dated 2021).

Test system: compound-treated mice
Experiment: Neuropharmacological assay (SmartCube): behavioral activity signature and minimal effective dose
Type: in vivo
Settings: for minimal effective dose: Mus musculus, ip, MED = dose having 50% or more total activity, read-out: Potency: minimal effective dose (MED); for AD: ADHD (probability of activity signature) / AG: analgesic (probability of activity signature) / AX: anxiolytic (probability of activity signature) / CE: cognitive enhancer (probability of activity signature) / DP: anti-depressant (probability of activity signature) / MS: mood stabilizer (probability of activity signature) / PS: anti-psychotic (probability of activity signature) / SD: sedative hypnotic (probability of activity signature) / UN: uncharacterized CNS activity (probability of activity signature): i.p. 15 min before test, most efficacious dose(s)
Outline: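 Mice dosed i.p. 15 min before test, compound in N-methyl-2-pyrrolidone/PEG/propylene glycol, 3 doses; video-captured behavior matched to reference-drug signatures, giving per-class probabilities at most efficacious dose. MED from doses typically 0.3–30 mpk, defined as lowest dose with ≥50% total activity.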

SMILES | minimal effective dose [mg/kg] | AD: ADHD (probability of activity signature) | AG: analgesic (probability of activity signature) | AX: anxiolytic (probability of activity signature) | CE: cognitive enhancer (probability of activity signature) | DP: anti-depressant (probability of activity signature) | MS: mood stabilizer (probability of activity signature) | PS: anti-psychotic (probability of activity signature) | SD: sedative hypnotic (probability of activity signature) | UN: uncharacterized CNS activity (probability of activity signature)
CCc1ccc2c(c1)C(N)COC2.Cl (centres unmarked) [Example 20, 6-Ethylisochroman-4-amine hydrochloride] | 3 to 10 | + (LOQ ≤ + <5%) | ++ (5% ≤ ++ <25%) | +++ (25% ≤ +++ <50%) | ++ (5% ≤ ++ <25%) | ++ (5% ≤ ++ <25%) | + (LOQ ≤ + <5%) | +++ (25% ≤ +++ <50%) | ++ (5% ≤ ++ <25%) | ++ (5% ≤ ++ <25%)
Cc1cccc2c1C(N)COC2.Cl (centres unmarked) [Example 21, 5-Methylisochroman-4-amine hydrochloride] | 3 to 10 | + (LOQ ≤ + <5%) | ++ (5% ≤ ++ <25%) | ++ (5% ≤ ++ <25%) | ++ (5% ≤ ++ <25%) | ++ (5% ≤ ++ <25%) | + (LOQ ≤ + <5%) | ++ (5% ≤ ++ <25%) | ++ (5% ≤ ++ <25%) | +++ (25% ≤ +++ <50%)
Cl.NC1COCc2cccc(F)c21 (centres unmarked) [Example 22] | 10 to 30 | + (LOQ ≤ + <5%) | ++ (5% ≤ ++ <25%) | ++ (5% ≤ ++ <25%) | ++ (5% ≤ ++ <25%) | ++ (5% ≤ ++ <25%) | + (LOQ ≤ + <5%) | ++ (5% ≤ ++ <25%) | + (LOQ ≤ + <5%) | +++ (25% ≤ +++ <50%)
Cl.NC1COCc2c(F)cccc21 (centres unmarked) [Example 23] | 10 to 30 | + (LOQ ≤ + <5%) | ++ (5% ≤ ++ <25%) | +++ (25% ≤ +++ <50%) | ++ (5% ≤ ++ <25%) | ++ (5% ≤ ++ <25%) | + (LOQ ≤ + <5%) | ++ (5% ≤ ++ <25%) | + (LOQ ≤ + <5%) | ++ (5% ≤ ++ <25%)
COc1cccc2c1COCC2N.Cl (centres unmarked) [Example 24] | 10 to 30 | + (LOQ ≤ + <5%) | + (LOQ ≤ + <5%) | ++ (5% ≤ ++ <25%) | + (LOQ ≤ + <5%) | ++ (5% ≤ ++ <25%) | + (LOQ ≤ + <5%) | ++ (5% ≤ ++ <25%) | ++ (5% ≤ ++ <25%) | + (LOQ ≤ + <5%)
COc1cccc2c1C(N)COC2.Cl (centres unmarked) [Example 25] | 10 to 30 | + (LOQ ≤ + <5%) | ++ (5% ≤ ++ <25%) | ++ (5% ≤ ++ <25%) | ++ (5% ≤ ++ <25%) | ++ (5% ≤ ++ <25%) | + (LOQ ≤ + <5%) | ++ (5% ≤ ++ <25%) | + (LOQ ≤ + <5%) | +++ (25% ≤ +++ <50%)
Cc1ccc2c(c1)C(N)COC2.Cl (centres unmarked) [Example 26] | < 3 | + (LOQ ≤ + <5%) | ++ (5% ≤ ++ <25%) | ++ (5% ≤ ++ <25%) | ++ (5% ≤ ++ <25%) | ++ (5% ≤ ++ <25%) | + (LOQ ≤ + <5%) | ++ (5% ≤ ++ <25%) | + (LOQ ≤ + <5%) | ++++ (50% ≤ ++++)
Cc1cccc2c1COCC2N.Cl (centres unmarked) [Example 27] | 3 to 10 | + (LOQ ≤ + <5%) | ++ (5% ≤ ++ <25%) | ++ (5% ≤ ++ <25%) | ++ (5% ≤ ++ <25%) | ++ (5% ≤ ++ <25%) | ++ (5% ≤ ++ <25%) | ++ (5% ≤ ++ <25%) | + (LOQ ≤ + <5%) | +++ (25% ≤ +++ <50%)
Cl.NC1COCc2cccc(Cl)c21 (centres unmarked) [Example 28] | 3 to 10 | + (LOQ ≤ + <5%) | ++ (5% ≤ ++ <25%) | ++ (5% ≤ ++ <25%) | ++ (5% ≤ ++ <25%) | ++ (5% ≤ ++ <25%) | + (LOQ ≤ + <5%) | ++ (5% ≤ ++ <25%) | + (LOQ ≤ + <5%) | +++ (25% ≤ +++ <50%)
CC1(C)OCC(N)c2ccccc21.Cl (centres unmarked) [Example 29] | 10 to 30 | + (LOQ ≤ + <5%) | +++ (25% ≤ +++ <50%) | ++ (5% ≤ ++ <25%) | + (LOQ ≤ + <5%) | ++ (5% ≤ ++ <25%) | + (LOQ ≤ + <5%) | + (LOQ ≤ + <5%) | + (LOQ ≤ + <5%) | + (LOQ ≤ + <5%)
Cl.NC1COCCc2ccccc21 (centres unmarked) [Example 30] | > 30 | + (LOQ ≤ + <5%) | ++ (5% ≤ ++ <25%) | + (LOQ ≤ + <5%) | + (LOQ ≤ + <5%) | + (LOQ ≤ + <5%) | + (LOQ ≤ + <5%) | + (LOQ ≤ + <5%) | + (LOQ ≤ + <5%) | + (LOQ ≤ + <5%)
